In patent US6407288B1, “Naphthylsalicylanilides as antimicrobial and antiinflammatory agents” (The Research Foundation of State University of New York, priority 2000, dated 2002):

Legend:
S. mutans = assay: MIC microdilution, gram positive; type: cell-based, Streptococcus mutans; conditions: Table 1, Gram Positive
Description: (§1) The MIC's for the compounds were determined by a modified microdilution tube dilution method described in “Methods for Dilution Antimicrobial Susceptibility Tests for Bacteria that Grow Aerobically” (National Committee for Clinical Laboratory Standards Approved Standards, 1997, NCCLS document M7-A4). In general the modifications were made because of the unique growth requirements for the fastidious oral organisms and for those bacteria that require anaerobic conditions. Reference is also made to “Methods for Antimicrobial Susceptibility of Anaerobic Bacteria” (National Committee for Clinical Laboratory Standards Approved Standards, 1997, NCCLS document M11-A4). Briefly, the methods were as follows. Cultures were grown for 18-24hrs (aerobic bacteria) or 48-72 hrs (anaerobic bacteria) in the appropriate medium. For aerobic bacteria full strength brain heart infusion medium (BHI, Difco) was used. For anaerobic bacteria, half strength BHI (18.5 g/L) was supplemented by adding yeast extract (10 g/L), hemin (0.29 mL of a stock solution containing 0.1 g/200 mL dH2O) and menadione (15 mL of a stock solution containing 0.15 mL in 30 mL 95% EtOH) was used. Initial cultures were diluted to approximately 1×10^8 CFU/mL for use as an inoculum. Each assay received 10 μL of the inoculum. The drugs were prepared from a stock solution contained in dimethyl sulfoxide (DMSO) and diluted into the culture medium. Final concentrations of the drugs ranged from 50 to 0.05 μg/assay. The tests were run in duplicate and were incubated appropriately with regard to oxygen requirements for 24 to 48 hrs as required. Anaerobic incubation was an atmosphere of 5% CO2, 10% H2, with the balance N2. The lowest concentration of an antimicrobial agent at which no visible growth is noted was referred to as the MIC.

S. sanguis = assay: MIC microdilution, gram positive; type: cell-based, Streptococcus sanguis; conditions: Table 1, Gram Positive
Description: as §1

S.salivarius = assay: MIC microdilution, gram positive; type: cell-based, Streptococcus salivarius; conditions: Table 1, Gram Positive
Description: as §1

P. acnes 11828 = assay: MIC microdilution, gram positive; type: cell-based, Propionibacterium acnes; conditions: Table 1, Gram Positive
Description: as §1

P. acnes 6922 = assay: MIC microdilution, gram positive; type: cell-based, Propionibacterium acnes; conditions: Table 1, Gram Positive
Description: as §1

A. viscosus = assay: MIC microdilution, gram positive; type: cell-based, Actinomyces viscosus; conditions: Table 2, Gram Positive
Description: as §1

S. aureus = assay: MIC microdilution, gram positive; type: cell-based, Staphlococcus aureus
Description: (§2) The MIC's for the compounds were determined by a modified microdilution tube dilution method described in “Methods for Dilution Antimicrobial Susceptibility Tests for Bacteria that Grow Aerobically” (National Committee for Clinical Laboratory Standards Approved Standards, 1997, NCCLS document M7-A4). In general the modifications were made because of the unique growth requirements for the fastidious oral organisms and for those bacteria that require anaerobic conditions. Reference is also made to “Methods for Antimicrobial Susceptibility of Anaerobic Bacteria” (National Committee for Clinical Laboratory Standards Approved Standards, 1997, NCCLS document M11-A4).
(§3) Briefly, the methods were as follows. Cultures were grown for 18-24hrs (aerobic bacteria) or 48-72 hrs (anaerobic bacteria) in the appropriate medium. For aerobic bacteria full strength brain heart infusion medium (BHI, Difco) was used. For anaerobic bacteria, half strength BHI (18.5 g/L) was supplemented by adding yeast extract (10 g/L), hemin (0.29 mL of a stock solution containing 0.1 g/200 mL dH2O) and menadione (15 mL of a stock solution containing 0.15 mL in 30 mL 95% EtOH) was used. Initial cultures were diluted to approximately 1×10^8 CFU/mL for use as an inoculum. Each assay received 10 μL of the inoculum. The drugs were prepared from a stock solution contained in dimethyl sulfoxide (DMSO) and diluted into the culture medium. Final concentrations of the drugs ranged from 50 to 0.05 μg/assay. The tests were run in duplicate and were incubated appropriately with regard to oxygen requirements for 24 to 48 hrs as required. Anaerobic incubation was an atmosphere of 5% CO2, 10% H2, with the balance N2. The lowest concentration of an antimicrobial agent at which no visible growth is noted was referred to as the MIC.
(§4) This embodiment describes the sensitivity of various staphylococcus strains to the compounds of the present invention. The staphylococcus species R is a strain 00-045-1209 from the Children's Hospital in Buffalo. It was isolated from the peritoneal cavity (fluid culture) of an individual. It was coagulase negative. The sensitivity of this strain was tested agaisnt several known antibiotics.

Lact 7496 = assay: MIC microdilution, gram positive; type: cell-based, Lactobacillus rhamnosus (casei); conditions: Table 2, Gram Positive
Description: as §1

M. luteus = assay: MIC microdilution, gram positive; type: cell-based, Micrococcus luteus; conditions: Table 2, Gram Positive
Description: as §1

Fuso. 25586 = assay: MIC microdilution, gram negative; type: cell-based, Fusobacterium nucleatum
Description: (§5) The MIC's for the compounds were determined by a modified microdilution tube dilution method described in “Methods for Dilution Antimicrobial Susceptibility Tests for Bacteria that Grow Aerobically” (National Committee for Clinical Laboratory Standards Approved Standards, 1997, NCCLS document M7-A4). In general the modifications were made because of the unique growth requirements for the fastidious oral organisms and for those bacteria that require anaerobic conditions. Reference is also made to “Methods for Antimicrobial Susceptibility of Anaerobic Bacteria” (National Committee for Clinical Laboratory Standards Approved Standards, 1997, NCCLS document M11-A4). Briefly, the methods were as follows. Cultures were grown for 18-24hrs (aerobic bacteria) or 48-72 hrs (anaerobic bacteria) in the appropriate medium. For aerobic bacteria full strength brain heart infusion medium (BHI, Difco) was used. For anaerobic bacteria, half strength BHI (18.5 g/L) was supplemented by adding yeast extract (10 g/L), hemin (0.29 mL of a stock solution containing 0.1 g/200 mL dH2O) and menadione (15 mL of a stock solution containing 0.15 mL in 30 mL 95% EtOH) was used. Initial cultures were diluted to approximately 1×10^8 CFU/mL for use as an inoculum. Each assay received 10 μL of the inoculum. The drugs were prepared from a stock solution contained in dimethyl sulfoxide (DMSO) and diluted into the culture medium. Final concentrations of the drugs ranged from 50 to 0.05 μg/assay. The tests were run in duplicate and were incubated appropriately with regard to oxygen requirements for 24 to 48 hrs as required. Anaerobic incubation was an atmosphere of 5% CO2, 10% H2, with the balance N2. The lowest concentration of an antimicrobial agent at which no visible growth is noted was referred to as the MIC. […] The method used was the same as described in Example 1.

Aa Y4 = assay: MIC microdilution, gram negative; type: cell-based, Actinobacillus actinomycetemcomitans
Description: as §5

P. ging 381 = assay: MIC microdilution, gram negative; type: cell-based, Porphyromonas gingivalis
Description: as §5

Pg 53977 = assay: MIC microdilution, gram negative; type: cell-based, Porphyromonas gingivalis
Description: as §5

B. fragilis = assay: MIC microdilution, gram negative; type: cell-based, Bacteroides fraglis
Description: as §5

Str. pn. R = assay: Mean Streptococcus MIC; type: cell-based; conditions: Table 5, mean; strain resistant to penicillin and erythromycin
Description: as §2, §3
(§6) This embodiment illustrates the efficacy of the compounds of the present invention against Streptococcus strains. One of the strains, Str.pn.R was obtained from the Children's Hospital in Buffalo (strain 00-041-0614). […] The sensitivity of this strain was tested against several known antibiotics.

Str. pn = assay: Mean Streptococcus MIC; type: cell-based; conditions: Table 5, mean
Description: as §2, §3, §6

S. species R = assay: Staphylococcus MIC; type: cell-based, staphylococcus species R; conditions: second Table 5 (Example 5); strain 00-045-1209
Description: as §2, §3, §4

[1] = tested on: staphylococcus species R (strain 00-045-1209); assay: Sensitivity of strain to known antibiotics; type: cell-based; conditions: sensitive / resistant
Description: as §4

[2] = tested on: Str.pn.R (strain 00-041-0614); assay: Sensitivity of strain to known antibiotics; type: cell-based, Streptococcus; conditions: sensitive / resistant
Description: as §6

[3] = Table 3 printed a second time, Gram Negative

Compound: O=C(c1ccc(O)c(C(=O)Nc2cccc(C(F)(F)F)c2)c1)c1ccc2ccccc2c1 [NA2mF]
- MIC S. mutans (S. mutans): NE (NE indicates that the drug was not effective at a concentration >50 micrograms/ml)
- MIC S. sanguis (S. sanguis): 0.8 micrograms/ml
- MIC S.salivarius (S.salivarius): 50 micrograms/ml
- MIC P. acnes 11828 (P. acnes 11828): 0.4 micrograms/ml
- MIC P. acnes 6922 (P. acnes 6922): 0.4 micrograms/ml
- MIC A. viscosus (A. viscosus): NE (NE indicates that the drug was not effective at a concentration >50 micrograms/ml)
- MIC S. aureus (S. aureus; Table 2, Gram Positive): NE (NE indicates that the drug was not effective at a concentration >50 micrograms/ml)
- MIC S. aureus (S. aureus; second Table 5 (Example 5)): NE (NE indicates that the drug was not effective at a concentration >50 micrograms/ml)
- MIC Lact 7496 (Lact 7496): 1.6 micrograms/ml
- MIC M. luteus (M. luteus): 0.8 micrograms/ml
- MIC Fuso. 25586 (Fuso. 25586; Table 3, Gram Negative): NE (NE indicates that the drug was not effective at a concentration >50 micrograms/ml)
- MIC Fuso. 25586 (Fuso. 25586; [3]): NE (NE indicates that the drug was not effective at a concentration >50 micrograms/ml)
- MIC Aa Y4 (Aa Y4; Table 3, Gram Negative): NE (NE indicates that the drug was not effective at a concentration >50 micrograms/ml)
- MIC Aa Y4 (Aa Y4; [3]): NE (NE indicates that the drug was not effective at a concentration >50 micrograms/ml)
- MIC P. ging 381 (P. ging 381; Table 3, Gram Negative): <0.4 micrograms/ml
- MIC P. ging 381 (P. ging 381; [3]): <0.4 micrograms/ml
- MIC Pg 53977 (Pg 53977; Table 3, Gram Negative): <0.4 micrograms/ml
- MIC Pg 53977 (Pg 53977; [3]): <0.4 micrograms/ml
- MIC B. fragilis (B. fragilis; Table 3, Gram Negative): NE (NE indicates that the drug was not effective at a concentration >50 micrograms/ml)
- MIC B. fragilis (B. fragilis; [3]): NE (NE indicates that the drug was not effective at a concentration >50 micrograms/ml)
- Mean Streptococcus MIC values Str. pn. R (Str. pn. R): 0.78 micrograms/ml
- Mean Streptococcus MIC values Str. pn (Str. pn): 0.84 micrograms/ml
- MIC S. species R (S. species R): 25.0 micrograms/ml

Compound: CO/N=C(\C(=O)N[C@@H]1C(=O)N2C(C(=O)O)=C(COC(C)=O)CS[C@H]12)c1csc(N)n1 [cefotaxime]
- sensitivity of staphylococcus species R to known antibiotics [1]: resistant

Compound: N#Cc1ccc(NC(=O)c2cc(C(=O)c3ccc4ccccc4c3)ccc2O)cc1 [NA2pC]
- MIC S. mutans (S. mutans): 1.6 micrograms/ml
- MIC S. sanguis (S. sanguis): 6.3 micrograms/ml
- MIC S.salivarius (S.salivarius): 50 micrograms/ml
- MIC P. acnes 11828 (P. acnes 11828): 6.3 micrograms/ml
- MIC P. acnes 6922 (P. acnes 6922): 6.3 micrograms/ml
- MIC A. viscosus (A. viscosus): 1.6 micrograms/ml
- MIC S. aureus (S. aureus; Table 2, Gram Positive): 6.3 micrograms/ml
- MIC S. aureus (S. aureus; second Table 5 (Example 5)): 6.3 micrograms/ml
- MIC Lact 7496 (Lact 7496): 6.3 micrograms/ml
- MIC M. luteus (M. luteus): 3.1 micrograms/ml
- MIC Fuso. 25586 (Fuso. 25586; Table 3, Gram Negative): 12.5 micrograms/ml
- MIC Fuso. 25586 (Fuso. 25586; [3]): 12.5 micrograms/ml
- MIC Aa Y4 (Aa Y4; Table 3, Gram Negative): 6.3 micrograms/ml
- MIC Aa Y4 (Aa Y4; [3]): 6.3 micrograms/ml
- MIC P. ging 381 (P. ging 381; Table 3, Gram Negative): 0.4 micrograms/ml
- MIC P. ging 381 (P. ging 381; [3]): 0.4 micrograms/ml
- MIC Pg 53977 (Pg 53977; Table 3, Gram Negative): 0.4 micrograms/ml
- MIC Pg 53977 (Pg 53977; [3]): 0.4 micrograms/ml
- MIC B. fragilis (B. fragilis; Table 3, Gram Negative): 3.1 micrograms/ml
- MIC B. fragilis (B. fragilis; [3]): 3.1 micrograms/ml
- Mean Streptococcus MIC values Str. pn. R (Str. pn. R): 3.12 micrograms/ml
- Mean Streptococcus MIC values Str. pn (Str. pn): 0.58 micrograms/ml
- MIC S. species R (S. species R): 12.5 micrograms/ml

Compound: CC1(C)S[C@@H]2[C@H](NC(=O)[C@H](N)c3ccc(O)cc3)C(=O)N2[C@H]1C(=O)O [amoxicillin]
- sensitivity of staphylococcus species R to known antibiotics [1]: resistant

Compound: CC[C@H]1OC(=O)[C@H](C)[C@@H](O[C@H]2C[C@@](C)(OC)[C@@H](O)[C@H](C)O2)[C@H](C)[C@@H](O[C@@H]2O[C@H](C)C[C@H](N(C)C)[C@H]2O)[C@](C)(O)C[C@@H](C)CN(C)[C@H](C)[C@@H](O)[C@]1(C)O [azithromycin]
- sensitivity of staphylococcus species R to known antibiotics [1]: resistant

Compound: Cc1onc(-c2ccccc2)c1C(=O)N[C@@H]1C(=O)N2[C@@H]1SC(C)(C)[C@@H]2C(=O)O [oxacillin]
- sensitivity of staphylococcus species R to known antibiotics [1]: resistant

Compound: N[C@@H]1[C@H]2CN(c3nc4c(cc3F)c(=O)c(C(=O)O)cn4-c3ccc(F)cc3F)C[C@@H]12 [Trovoflox]
- sensitivity of strain Str.pn.R to known antibiotics [2]: sensitive

Compound: CO[C@H]1/C=C/O[C@@]2(C)Oc3c(C)c(O)c4c(O)c(c(/C=N/N5CCN(C)CC5)c(O)c4c3C2=O)NC(=O)/C(C)=C\C=C\[C@H](C)[C@H](O)[C@@H](C)[C@@H](O)[C@@H](C)[C@H](OC(C)=O)[C@@H]1C [Rifampin]
- sensitivity of strain Str.pn.R to known antibiotics [2]: sensitive

Compound: penicillin
- sensitivity of strain Str.pn.R to known antibiotics [2]: resistant
